We go through 10 compounds from US8937152B2, “Non-selective somatostatin analogues” (Italfarmaco SpA, priority 2007, dated 2015).

Where two headings read alike, the source gives them in different places. *1 amine or outer side, *2 acyl side, *3 side chain or, on linkers, in order; H or OH if unused. Where a SMILES comes first, the peptide text is derived from it. Side-chain parts run from the residue outwards. [ ]: non-standard residue; d: D form. The star is where a group is joined. Ethylenediamine = C(CN[*:2])N[*:1]; Hyp = O=C(O)[C@@H]1C[C@@H](O)CN1; Phg = N[C@H](C(=O)O)c1ccccc1; CO = O=C([*:1])[*:2]; Bn = c1ccc(C*)cc1

The conditions of data set [1]: comparison value, source and conditions not stated; cited from earlier work.
A further data set has as its target T1, hSSTR1 (Homo sapiens, UniProt P30872).
T1 construct: expressed in transfected cells
Kind of data set: Binding assay, displacement of 3-[125I]iodotyrosyl11 Somatostatin-14. The following applies: recombinant human receptor, cell membranes; 60 min at 25° C. As to the method:
(§1) The binding assays were carried out, as is explained below, by using preparations of recombinant human receptors, hSSTR1, hSSTR2, hSSTR3 and hSSTR5, obtained from cell membranes (for example CHO) transfected according to standard methods.
(§2) The membranes are incubated in duplicate for 60 min. at 25° C. with 3-[125I]iodotyrosyl11Somatostatin-14 (Amersham, IM161, 2000 Ci/mmol) as radioligand and with increasing concentrations of the compound under examination, in 25 mM Hepes (pH 7.4) buffer, containing 5 mM MgCl2, 1 mM CaCl2, 10 μg/ml of Saponin, 0.5% BSA. The incubation is terminated by means of filtration with a Filtermate Harvester (Perkin Elmer) through GF/B filters, which are then washed 6 times with buffer (25 mM Hepes pH 7.4, 5 mM MgCl2, 1 mM CaCl2). The radioactivity of the filters is measured in a TopCount™ or MicroBeta™ reader for 1 min/well after having added the Microscint 20 liquid scintillation (Packard) and incubated for 15 min. in an orbital stirrer. The results are expressed as specific binding percentage of the radio-marked ligand, in the presence of increasing concentrations of the compound under examination. The IC50 values were calculated by using the “GraphPad Prism” software (IC50=concentration of compound necessary for obtaining half of the maximum inhibition, in the competitive binding test described above).

Another data set addresses T2, hSSTR2 (Homo sapiens, UniProt P30874).
T2 construct: expressed in transfected cells
The description is as above. The following applies: cell membranes, 60 min at 25° C. As to the method: as §1, §2

Another data set deals with T3, hSSTR5 (Homo sapiens, UniProt P35346).
T3 construct: expressed in transfected cells
T3 sequence (P35346 whole entry): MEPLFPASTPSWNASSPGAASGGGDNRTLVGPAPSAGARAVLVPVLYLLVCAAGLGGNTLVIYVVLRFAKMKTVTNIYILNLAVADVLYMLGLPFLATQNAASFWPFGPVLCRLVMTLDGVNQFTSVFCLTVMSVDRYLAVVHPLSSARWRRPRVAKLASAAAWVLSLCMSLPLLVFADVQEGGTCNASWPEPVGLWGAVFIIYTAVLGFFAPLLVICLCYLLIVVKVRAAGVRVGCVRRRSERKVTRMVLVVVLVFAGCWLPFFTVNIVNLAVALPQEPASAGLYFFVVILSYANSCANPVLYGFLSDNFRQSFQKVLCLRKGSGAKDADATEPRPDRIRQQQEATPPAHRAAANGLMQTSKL
The data set is described as above. The following applies: cell membranes, 60 min at 25° C. As to the method:
as §1, §2

The target in another data set is T4, hSSTR3 (Homo sapiens, UniProt P32745).
T4 construct: expressed in transfected cells
T4 sequence (P32745 whole entry): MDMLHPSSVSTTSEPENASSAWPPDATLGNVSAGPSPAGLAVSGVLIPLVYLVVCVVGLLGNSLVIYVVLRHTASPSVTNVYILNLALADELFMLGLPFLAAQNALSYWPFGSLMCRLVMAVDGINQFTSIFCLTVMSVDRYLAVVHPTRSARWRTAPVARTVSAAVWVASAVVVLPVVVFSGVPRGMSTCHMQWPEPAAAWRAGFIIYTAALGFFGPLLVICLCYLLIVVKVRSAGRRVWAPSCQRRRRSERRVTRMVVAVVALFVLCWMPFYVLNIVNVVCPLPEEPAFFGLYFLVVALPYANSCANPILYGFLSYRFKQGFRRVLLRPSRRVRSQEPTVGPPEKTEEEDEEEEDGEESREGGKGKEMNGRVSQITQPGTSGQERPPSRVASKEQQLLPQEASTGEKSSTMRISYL
The data set is described as above. Particulars: cell membranes, 60 min at 25° C. As to the method:
as §1, §2

Data set [2] in a line: Pharmacokinetic profile in rats, subcutaneous. In kind it is in vivo. The following applies: rat, sc, male rats, 1 mg/kg, plasma; for half-life: read-out: t½ (converted). As to the method:
Assay for the Pharmacokinetic Profile
The compounds of the invention also show, in rats, a very favourable pharmacokinetic profile. The pharmacokinetic profile was measured by administering the compounds to male rates, subcutaneously, at the dose of 1 mg/kg (CD, Sprague Dawley; 200-250 g). Blood samples were collected, at different times, up to 72 hours after the administration. The concentrations of the compound under examination were measured in the separated plasma samples, by means of an LC-MS/MS analysis method and the values were processed according to a non-compartmental model using the software “Kinetica”. In the following table, the main pharmacokinetic parameters obtained with the compound of example 1 are reported, compared with those obtained with PASIREOTIDE, another stable analogue of somatostatin, currently in clinical development phase (PASIREOTIDE was prepared by following the process described in WO2002010192).

The subject of another data set is rat pituitary cells. Particulars: 3 h.
Data set [3] has as its system release of GH stimulated by Nembutal. Kind of data set: In vivo inhibition of the GH production stimulated by barbiturates (Nembutal). Set-up: species or system rat. The following applies: male rats, subcutaneous. As to the method:
Assay for the In Vivo Inhibition of the GH Production, Stimulated by Barbiturates
The compounds are administrated subcutaneously, at different doses, in male rats (CD, Harlan Italy). Blood samples are collected, at different times, one hour after the animals were anesthetised by means of intraperitoneal administration of Nembutal (60 mg/kg); the hormone levels are measured by means of the ELISA test. In the animals treated with the compounds of the invention, at doses from 5 to 250 μg/kg, there is a decrease of the produced GH levels.

Setting [4] is: recombinant human receptor, read-out: IC50 (nM) hSSTR2.
Where [5] appears, read: recombinant human receptor, read-out: IC50 (nM) hSSTR5.
Where [6] appears, read: recombinant human receptor, read-out: IC50 (nM) hSSTR3.

T1 sequence (P30872 whole entry): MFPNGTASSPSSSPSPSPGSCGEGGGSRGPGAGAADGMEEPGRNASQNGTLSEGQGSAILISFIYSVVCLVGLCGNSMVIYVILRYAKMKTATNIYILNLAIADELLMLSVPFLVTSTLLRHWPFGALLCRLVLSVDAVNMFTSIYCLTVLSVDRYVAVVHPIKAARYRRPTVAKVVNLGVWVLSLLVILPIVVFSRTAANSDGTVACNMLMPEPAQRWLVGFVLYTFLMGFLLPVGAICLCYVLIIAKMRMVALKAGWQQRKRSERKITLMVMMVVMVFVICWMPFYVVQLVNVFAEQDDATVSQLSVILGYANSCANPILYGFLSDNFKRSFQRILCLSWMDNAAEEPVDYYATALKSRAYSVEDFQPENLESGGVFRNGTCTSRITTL
T2 sequence (P30874 whole entry): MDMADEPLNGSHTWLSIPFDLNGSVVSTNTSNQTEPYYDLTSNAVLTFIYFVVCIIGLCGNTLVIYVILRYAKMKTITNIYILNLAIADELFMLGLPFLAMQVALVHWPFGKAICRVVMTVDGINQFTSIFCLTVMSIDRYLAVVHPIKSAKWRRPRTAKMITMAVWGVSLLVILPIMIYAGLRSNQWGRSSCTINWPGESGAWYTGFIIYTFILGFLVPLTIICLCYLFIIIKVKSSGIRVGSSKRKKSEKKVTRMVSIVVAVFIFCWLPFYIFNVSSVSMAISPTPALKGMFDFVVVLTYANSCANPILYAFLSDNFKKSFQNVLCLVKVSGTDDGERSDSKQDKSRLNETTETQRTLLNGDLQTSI

As for `C[C@@H](O)[C@@H]1NC(=O)[C@H](CCCCN)NC(=O)[C@@H](Cc2c[nH]c3ccccc23)NC(=O)[C@H](Cc2ccccc2)NC(=O)[C@@H](NC(=O)[C@H](N)Cc2ccccc2)CSSC[C@@H](C(=O)N[C@H](CO)[C@@H](C)O)NC1=O` [OCTREOTIDE], in data set [1], the t½ result is recorded as “about 2 hours”.

Regarding `CNCCNC(=O)O[C@@H]1C[C@H]2C(=O)N[C@@H](Cc3ccccc3)C(=O)NC(Cc3cc4c(OC)cccc4cc3OC)C(=O)N[C@@H](CCCCN)C(=O)N[C@@H](Cc3ccc(OCc4ccccc4)cc3)C(=O)N[C@@H](Cc3ccccc3)C(=O)N2C1` (single isomer, unassigned) [Example 7, cyclo[Tyr(Bn)-Phe-Pro (4-OCONH(CH2)2NHCH3)-Phe-(D,L)3,8MNal-Lys]], the IC50 at hSSTR1 came to 5.8 nM; at hSSTR2 (setting [4]), 9.2 nM; at hSSTR5 (setting [5]), 0.97 nM; at hSSTR3 (setting [6]) it was 1.33 nM.

With `COc1cc(CC2NC(=O)[C@H](Cc3ccccc3)NC(=O)[C@@H]3C[C@@H](OC(=O)NCCN)CN3C(=O)[C@H](Cc3ccccc3)NC(=O)[C@H](Cc3ccc(OCc4ccccc4)cc3)NC(=O)[C@H](CCCCN)NC2=O)c(OC)c2ccccc12` (single isomer, unassigned) [Example 8, cyclo[Tyr(Bn)-Phe-Pro(4-OCONH(CH2)2NH2)-Phe-(D,L)1,4-MNal-Lys]], the concentration for half-maximal inhibition (IC50) on hSSTR1 came to 19.1 nM; at hSSTR2 (setting [4]), 26.6 nM; at hSSTR5 (setting [5]), 9.78 nM; on hSSTR3 (setting [6]), 2.92 nM.

Regarding `COc1cc(CC2NC(=O)[C@H](Cc3ccccc3)NC(=O)[C@@H]3C[C@@H](OC(=O)NCCN)CN3C(=O)[C@H](Cc3ccccc3)NC(=O)[C@H](Cc3ccc(OCc4ccccc4)cc3)NC(=O)[C@H](CCCCN)NC2=O)c(OC)c2ccccc12` (single isomer, unassigned) [Example 9, cyclo[Tyr(Bn)-Phe-Pro(4-OCONH(CH2)2NH2)-Phe-(D,L)1,4-MNal-Lys]], the IC50 on hSSTR1 is 32.4 nM; on hSSTR2 (setting [4]) it was 9.9 nM; on hSSTR5 (setting [5]), 1.9 nM; on hSSTR3 (setting [6]) it was 2.34 nM.

In the case of `COc1ccc(OC)c(CCC2NC(=O)[C@H](Cc3ccccc3)NC(=O)[C@@H]3C[C@@H](OC(=O)NCCN)CN3C(=O)[C@H](Cc3ccccc3)NC(=O)[C@H](Cc3ccc(OCc4ccccc4)cc3)NC(=O)[C@H](CCCCN)NC2=O)c1` (single isomer, unassigned) [Example 6, cyclo[Tyr(Bn)-Phe-Pro(4-OCONH(CH2)2NH2)-Phe-(D,L)2,5 MhPhe-Lys]], the IC50 amounted to 10 nM on hSSTR1, 25.8 nM at hSSTR2 (setting [4]), 0.64 nM on hSSTR5 (setting [5]) and 0.52 nM on hSSTR3 (setting [6]).

In data set [2] (Sprague Dawley (CD)), `NCCCC[C@@H]1NC(=O)[C@@H](Cc2c[nH]c3ccccc23)NC(=O)[C@H](c2ccccc2)NC(=O)[C@@H]2C[C@@H](OC(=O)NCCN)CN2C(=O)[C@H](Cc2ccccc2)NC(=O)[C@H](Cc2ccc(OCc3ccccc3)cc2)NC1=O` [PASIREOTIDE, reference compound] (cyclo([Hyp]([CO-Ethylenediamine])[Phg][dW]KY(Bn)F)) came in with an AUC of 2800 ng·h/mL, an AUC(0-t) of 2780 ng·h/mL, a Cmax of 668 ng/mL and an MRT of 4.87 h. In addition, in data set [2] (Sprague Dawley (CD)), the Tmax came to 2 h and the half-life is 24.4 h.

`COc1cc2cccc(OC)c2cc1CC1NC(=O)[C@H](Cc2ccccc2)NC(=O)[C@@H]2C[C@@H](OC(=O)NCCN)CN2C(=O)[C@H](Cc2ccccc2)NC(=O)[C@H](COCc2ccccc2)NC(=O)[C@H](CCCCN)NC1=O` (single isomer, unassigned) [Example 15, cyclo[Ser(Bn)-Phe-Pro(4-OCONH(CH2)2NH2)-Phe-(D,L)3,8MNal-Lys]]: the IC50 at hSSTR1 is 1 nM; on hSSTR2 (setting [4]), 7 nM; at hSSTR5 (setting [5]), 1.62 nM; at hSSTR3 (setting [6]), 1.8 nM.

`COc1cc2cccc(OC)c2cc1CC1NC(=O)[C@H](Cc2ccc(O)cc2)NC(=O)[C@@H]2C[C@@H](OC(=O)NCCN)CN2C(=O)[C@H](Cc2ccccc2)NC(=O)[C@H](Cc2ccc(OCc3ccccc3)cc2)NC(=O)[C@H](CCCCN)NC1=O` (stereo partly shown) [Example 14, cyclo[Tyr(Bn)-Phe-Pro(4-OCONH(CH2)2NH2)-Tyr-(D,L)3,8MNal-Lys]]: the half-inhibitory concentration (IC50) at hSSTR2 (IC50 (nM) hSSTR2, recombinant human receptor) was 1.8 nM; at hSSTR5 (IC50 (nM) hSSTR5, recombinant human receptor) it was 0.36 nM; at hSSTR3 (IC50 (nM) hSSTR3, recombinant human receptor), 0.35 nM.

`COc1cc2cccc(OC)c2cc1CC1NC(=O)[C@H](Cc2ccccc2)NC(=O)[C@@H]2C[C@@H](OC(=O)NCCN)CN2C(=O)[C@H](Cc2ccccc2)NC(=O)[C@H](Cc2ccc(OCc3ccccc3)cc2)NC(=O)[C@H](CCCCN)NC1=O` (single isomer, unassigned) [Example 5, cyclo[Tyr(Bn)-Phe-Pro(4-OCONH(CH2)2NH2)-Phe-(D,L)3,8MNal-Lys]]: at hSSTR1, the IC50 amounted to 10.8 nM. Moreover, the IC50 at hSSTR2 (setting [4]) is 9.3 nM. The IC50 on hSSTR5 (setting [5]) is 0.42 nM. At hSSTR3 (setting [6]), the IC50 came out at 0.31 nM. For the same compound, in data set [2] (CD, Sprague Dawley), the AUC amounted to 2880 ng·h/mL, the AUC(0-t) turned out to be 2730 ng·h/mL, the Cmax stood at 224 ng/mL and the MRT is 19 h. In data set [2] (CD, Sprague Dawley), the Tmax was 4 h and the half-life is 31.3 h. The compound further returned an IC50 with rat pituitary cells of 1.3 nM.

For the compound “Fmoc-(D/L) 3-(3,8-dimethoxy-Naphthalene-2-yl)-Alanine [Example 1]”, the “reduction of the release of GH” value in data set [3] (5 μg/kg, six hours after the administration) turned out to be 55%. In addition, the “reduction of GH, duration” value in data set [3] (125 μg/kg, 24 hours after the administration) was “still measurable”.
